Measured values from publication PMC6171417, “Carbonic anhydrase inhibition with a series of novel benzenesulfonamide-triazole conjugates” (Journal of Enzyme Inhibition and Medicinal Chemistry, 2018).
Like-named read-outs stand apart in the source and are kept apart here.

What was measured:
hCA II = biological target: T1, hCA II (Homo sapiens, UniProt P00918); test: stopped-flow CO2 hydrase assay; assay type: biochemical
T1 construct: gene CA2; recombinant, obtained in-house as reported earlier; cytosolic
Source text: stopped-flow CO2 hydrase assay on hCA II

UACC-62 = test: cells; parameters: species or system NCI human tumour cell line panel; NCI one-dose anti-proliferative screen, human tumour cell line panel, growth inhibition percent (GI%); settings: Homo sapiens, UACC-62; growth inhibition (GI%), single dose
Description: (§1) Ten of the newly synthesised 1,2,3-triazolo benzenesulfonamide derivatives were selected by NCI (Bethesda, MD) for evaluating their anti-proliferative activity. The selected compounds were subjected to a primary in vitro one-dose ([…]) anti-proliferative assay against 57 human tumour cell lines following the previously reported method[30] and their obtained growth inhibition percent (GI%) are presented in Table 2. A subset of ten triazolo-benzenesulfonamides (3, 5, 6, 7, 9, 11, 16–18, and 20) were selected and subjected to an in vitro anti-proliferative screening against a panel of 57 cancer cell lines at NCI at an initial high dose ([…]). The human cell lines used were derived from nine cancer types: leukaemia, lung, colon, CNS, melanoma, ovarian, renal, prostate and breast cancers.

OVCAR-8 = test: cells; parameters: species or system NCI human tumour cell line panel; NCI one-dose anti-proliferative screen, human tumour cell line panel, growth inhibition percent (GI%); settings: Homo sapiens, OVCAR-8; growth inhibition (GI%), single dose
Description: as §1

EKVX = test: cells; parameters: species or system NCI human tumour cell line panel; NCI one-dose anti-proliferative screen, human tumour cell line panel, growth inhibition percent (GI%); settings: Homo sapiens, EKVX; growth inhibition (GI%), single dose
Description: as §1

A498 = test: cells; parameters: species or system NCI human tumour cell line panel; NCI one-dose anti-proliferative screen, human tumour cell line panel, growth inhibition percent (GI%); settings: Homo sapiens, A498; growth inhibition (GI%), single dose
Description: as §1

NCI-H226 = test: cells; parameters: species or system NCI human tumour cell line panel; NCI one-dose anti-proliferative screen, human tumour cell line panel, growth inhibition percent (GI%); settings: Homo sapiens, NCI-H226; growth inhibition (GI%), single dose
Description: as §1

HL-60(TB) = test: cells; parameters: species or system NCI human tumour cell line panel; NCI one-dose anti-proliferative screen, human tumour cell line panel, growth inhibition percent (GI%); settings: Homo sapiens, HL-60; growth inhibition (GI%), single dose
Description: as §1

SR = test: cells; parameters: species or system NCI human tumour cell line panel; NCI one-dose anti-proliferative screen, human tumour cell line panel, growth inhibition percent (GI%); settings: Homo sapiens, SR; growth inhibition (GI%), single dose
Description: as §1

PC-3 = test: cells; parameters: species or system NCI human tumour cell line panel; NCI one-dose anti-proliferative screen, human tumour cell line panel, growth inhibition percent (GI%); settings: Homo sapiens, PC-3; growth inhibition (GI%), single dose
Description: as §1

HT29 = test: cells; parameters: species or system NCI human tumour cell line panel; NCI one-dose anti-proliferative screen, human tumour cell line panel, growth inhibition percent (GI%); settings: Homo sapiens, HT-29; growth inhibition (GI%), single dose
Description: as §1

MCF7 = test: cells; parameters: species or system NCI human tumour cell line panel; NCI one-dose anti-proliferative screen, human tumour cell line panel, growth inhibition percent (GI%); settings: Homo sapiens, MCF7; growth inhibition (GI%), single dose
Description: as §1

hCA IV = biological target: T2, hCA IV (Homo sapiens, UniProt P22748); test: stopped-flow CO2 hydrase assay; assay type: biochemical
T2 construct: gene CA4; recombinant, obtained in-house as reported earlier
Source text: stopped-flow CO2 hydrase assay on hCA IV

hCA IX = biological target: T3, hCA IX (Homo sapiens, UniProt Q16790); test: stopped-flow CO2 hydrase assay; assay type: biochemical
T3 construct: gene CA9; recombinant, obtained in-house as reported earlier
Source text: stopped-flow CO2 hydrase assay on hCA IX

hCA I = biological target: T4, hCA I (Homo sapiens, UniProt P00915); test: stopped-flow CO2 hydrase assay; assay type: biochemical
T4 construct: gene CA1; recombinant, obtained in-house as reported earlier; cytosolic
Source text: stopped-flow CO2 hydrase assay on hCA I

SF-539 = test: cells; parameters: species or system NCI human tumour cell line panel; NCI one-dose anti-proliferative screen, human tumour cell line panel, growth inhibition percent (GI%); settings: Homo sapiens, SF-539; growth inhibition (GI%), single dose
Description: as §1

MALME-3M = test: cells; parameters: species or system NCI human tumour cell line panel; NCI one-dose anti-proliferative screen, human tumour cell line panel, growth inhibition percent (GI%); settings: Homo sapiens, Malme-3M; growth inhibition (GI%), single dose
Description: as §1

NCI/ADR-RES = test: cells; parameters: species or system NCI human tumour cell line panel; NCI one-dose anti-proliferative screen, human tumour cell line panel, growth inhibition percent (GI%); settings: Homo sapiens, NCI/ADR-RES; growth inhibition (GI%), single dose
Description: as §1

MDA-MB-435 = test: cells; parameters: species or system NCI human tumour cell line panel; NCI one-dose anti-proliferative screen, human tumour cell line panel, growth inhibition percent (GI%); settings: Homo sapiens, MDA-MB-435; growth inhibition (GI%), single dose
Description: as §1

ACHN = test: cells; parameters: species or system NCI human tumour cell line panel; NCI one-dose anti-proliferative screen, human tumour cell line panel, growth inhibition percent (GI%); settings: Homo sapiens, ACHN; growth inhibition (GI%), single dose
Description: as §1

KM12 = test: cells; parameters: species or system NCI human tumour cell line panel; NCI one-dose anti-proliferative screen, human tumour cell line panel, growth inhibition percent (GI%); settings: Homo sapiens, KM12; growth inhibition (GI%), single dose
Description: as §1

BT-549 = test: cells; parameters: species or system NCI human tumour cell line panel; NCI one-dose anti-proliferative screen, human tumour cell line panel, growth inhibition percent (GI%); settings: Homo sapiens, BT-549; growth inhibition (GI%), single dose
Description: as §1

T2 sequence (P22748 19-284): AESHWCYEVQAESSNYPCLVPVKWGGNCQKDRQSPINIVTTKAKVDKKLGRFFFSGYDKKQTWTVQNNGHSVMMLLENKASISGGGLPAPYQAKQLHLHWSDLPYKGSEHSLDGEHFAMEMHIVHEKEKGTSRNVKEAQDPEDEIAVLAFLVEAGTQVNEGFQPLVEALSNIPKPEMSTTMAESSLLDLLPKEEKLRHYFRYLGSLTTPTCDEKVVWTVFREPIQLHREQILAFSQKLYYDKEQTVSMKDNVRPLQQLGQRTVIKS
T4 sequence (P00915 2-261): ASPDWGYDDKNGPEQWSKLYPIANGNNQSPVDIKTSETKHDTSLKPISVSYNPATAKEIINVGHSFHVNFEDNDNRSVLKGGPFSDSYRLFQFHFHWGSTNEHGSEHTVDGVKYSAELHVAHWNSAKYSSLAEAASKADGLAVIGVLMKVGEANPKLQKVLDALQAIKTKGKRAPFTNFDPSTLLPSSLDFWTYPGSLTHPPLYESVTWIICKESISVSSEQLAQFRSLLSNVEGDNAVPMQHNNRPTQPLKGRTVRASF

| SMILES | Ki (hCA II) [nM] | inhibition at 10 µM (UACC-62) [%] | inhibition at 10 µM (OVCAR-8) [%] | inhibition at 10 µM (EKVX) [%] | inhibition at 10 µM (A498) [%] | inhibition at 10 µM (NCI-H226) [%] | inhibition at 10 µM (HL-60(TB)) [%] | inhibition at 10 µM (SR) [%] | inhibition at 10 µM (PC-3) [%] | inhibition at 10 µM (HT29) [%] | inhibition at 10 µM (MCF7) [%] | Ki (hCA IV) [nM] | Ki (hCA IX) [nM] | Ki (hCA I) [nM] | inhibition at 10 µM (SF-539) [%] | inhibition at 10 µM (MALME-3M) [%] | inhibition at 10 µM (NCI/ADR-RES) [%] | inhibition at 10 µM (MDA-MB-435) [%] | inhibition at 10 µM (ACHN) [%] | inhibition at 10 µM (KM12) [%] | other results |
| --- | --- | --- | --- | --- | --- | --- | --- | --- | --- | --- | --- | --- | --- | --- | --- | --- | --- | --- | --- | --- | --- |
| Nc1nc(=S)[nH]c2c1nnn2-c1ccc(S(N)(=O)=O)cc1 [compound 18, 4-(7-amino-5-thioxo-4,5-dihydro-3H-[1,2,3]triazolo[4,5-d]pyrimidin-3-yl)benzenesulfonamide] | 732 | 5.6 | 3.7 | 3.7 | 5.5 | 9.8 | 26.1 | 1.7 | 7.8 | 10.8 | 2.9 | 489 | 272 | 955 |  |  |  |  |  |  |  |
| N#Cc1nnn(-c2ccc(S(N)(=O)=O)cc2)c1NS(=O)(=O)c1ccccc1 [compound 11, N-(4-cyano-1-(4-sulfamoylphenyl)-1H-1,2,3-triazol-5-yl)benzenesulfonamide] | 356 | 5.9 | 2.9 | 2 |  |  | 10.7 | 9.2 | 9.7 | 5.1 | 1.7 | 4520 | 144 | 5550 | 3.2 | 1.2 | 3.2 |  |  |  |  |
| N#Cc1nnn(-c2ccc(S(N)(=O)=O)cc2)c1N [compound 3, 3] |  | 5.5 | 4.6 | 8.7 | 13.6 | 5.2 | 6.5 | 3.5 | 8.3 | 9.4 | 5.5 |  |  |  | 1.9 |  |  | 3.1 | 1.3 |  |  |
| CN(C)c1ccc(-c2nc3c(nnn3-c3ccc(S(N)(=O)=O)cc3)c(N)c2C#N)cc1 [compound 17, 4-(7-amino-6-cyano-5-(4-(dimethylamino)phenyl)-3H-[1,2,3]triazolo[4,5-b]pyridin-3-yl)benzenesulfonamide] | 56.8 | 11.6 | 11.4 | 17.2 | 1.8 | 16.9 | 12.5 | 3.2 | 13.8 | 3.3 | 7.3 | 473 |  | 683 | 2.7 | 0.4 |  |  | 9.3 | 5.9 | inhibition at 10 µM (BT-549): 0.3%; Ki (hCA IX; CO2 […], […] Hepes pH […] Na2SO4, […] phenol red, […] min pre-incubation at room temperature): 35.1 nM |
| CCn1c(=S)[nH]c2c(nnn2-c2ccc(S(N)(=O)=O)cc2)c1=N [compound 20, 4-(6-ethyl-7-imino-5-thioxo-4,5,6,7-tetrahydro-3H-[1,2,3]triazolo[4,5-d]pyrimidin-3-yl)benzenesulfonamide] | 930 | 4.3 | 4.8 | 3.1 | 6.2 | 6.9 | 8.9 | 7.5 | 9.7 |  | 4.9 | 875 | 242 | 909 |  |  | 2.2 |  |  |  |  |
| N#Cc1c(-c2ccc(Cl)cc2)nc2c(nnn2-c2ccc(S(N)(=O)=O)cc2)c1N [compound 16, 4-(7-amino-5-(4-chlorophenyl)-6-cyano-3H-[1,2,3]triazolo[4,5-b]pyridin-3-yl)benzenesulfonamide] | 169 | 15.5 | 3.8 | 39.5 | 17.6 | 9.8 | 5.5 | 16.8 | 22.2 | 1.2 | 13.6 | 788 | 42.6 | 605 |  |  | 4.2 | 2.9 |  |  |  |
| N#Cc1nnn(-c2ccc(S(N)(=O)=O)cc2)c1/N=C/c1ccc(Cl)cc1 [compound 9, 9] |  | 6 | 7.4 | 4.2 | 8.6 | 4.8 | 12.6 | 15.8 | 9.3 | 0.4 | 4.7 |  |  |  |  |  | 5.4 | 3.4 |  | 0.5 | inhibition at 10 µM (BT-549): 11.3% |
| N#Cc1nnn(-c2ccc(S(N)(=O)=O)cc2)c1NCC(=O)c1ccccc1 [compound 7, 7] |  | 4 | 2.4 | 9.2 |  | 11.8 | 11.6 | 9.3 | 15.9 | 4.5 | 6.7 |  |  |  |  | 3.6 |  | 8.3 | 0.6 | 0.6 | inhibition at 10 µM (BT-549): 2% |
